Test results published in patent publication US8093221B2, “Cosmetic and pharmaceutical compositions comprising lauroyl proline and an ester of anhydrohexitol and of an aliphatic carboxylic acid” (Societe d'Exploitation de Produits pour les Industries …, priority 2005, dated 2012).

Test: Tests for dissolving the composition in liquid media (water, liquid paraffin, propylene glycol)
Format: physicochemical
Settings: 0.75% by mass of N-lauroyl proline (Composition 3 at 3% by mass)
Protocol: Composition 3 prepared in the above paragraph is dissolved in water, in liquid paraffin and in propylene glycol, at a proportion of 3% by mass, which corresponds to 0.75% by mass of N-lauroyl proline.

CCCCCCCCCCCC(=O)N1CCC[C@H]1C(=O)O [Pure N-lauroyl proline, N-lauroyl proline]
Temperature at which dispersible in liquid paraffin (liquid paraffin): dispersible at 70 °C | Temperature at which dispersible in propylene glycol (propylene glycol): dispersible at 60 °C | Temperature at which dispersible in water (water): dispersible at 80 °C
